Results published in the NIST ThermoML archive (doi:10.1021/acs.jced.5b00098).
Numbers after ± are expanded uncertainties.

Details: Crystal; visual observation

| Compound | Normal melting temperature |
| --- | --- |
| O=c1cc(-c2ccccc2)c2cc(O)c(O)cc2o1 [6,7-dihydroxy-4-phenylcoumarin] | 269.50 ± 0.5 °C |
| COc1cc2oc(=O)cc(-c3ccccc3)c2cc1O [6-hydroxy-7-methoxy-4-phenylcoumarin] | 211.50 ± 0.5 °C |
